Percent effect (mortality or growth inhibition), mortality and percent control (mortality or growth inhibition) data for 22 molecules are collected here from patent US10336691B2, “Pesticidally active oxime and hydrazone derivatives” (Syngenta Participations AG, priority 2015, dated 2019).

Some results are limits rather than exact numbers.

What all share (format): in vivo
In assay [1] the test system is Plutella xylostella. Kind of assay: Plutella xylostella (diamond back moth) artificial diet test, L2 larvae. Conditions: 120 h, application rate of 200 ppm, 5 days after infestation, in comparison to untreated samples, read-out: effect in at least one of the two categories (mortality or growth inhibition). Here is the method:
Plutella xylostella (Diamond Back Moth)
24-well microtiter plates with artificial diet were treated with aqueous test solutions prepared from 10,000 ppm DMSO stock solutions by pipetting. After drying, the plates were infested with L2 larvae (10 to 15 per well). The samples were assessed for mortality and growth inhibition in comparison to untreated samples 5 days after infestation.

Assay [2] has as its system Diabrotica balteata. Kind of assay: Diabrotica balteata (corn root worm) maize sprout spray test, L2 larvae. To be noted: 96 h, read-out: effect in at least one of the two categories (mortality or growth inhibition); for percent effect (mortality or growth inhibition) at 200 ppm: application rate of 200 ppm, 4 days after infestation, in comparison to untreated samples. The procedure: Diabrotica balteata (Corn Root Worm)
Maize sprouts, placed on an agar layer in 24-well microtiter plates were treated with aqueous test solutions prepared from 10,000 ppm DMSO stock solutions by spraying. After drying, the plates were infested with L2 larvae (6 to 10 per well). The samples were assessed for mortality and growth inhibition in comparison to untreated samples 4 days after infestation.

Assay [3] relates to Spodoptera littoralis. Kind of assay: Spodoptera littoralis (Egyptian cotton leaf worm) cotton leaf disc spray test, L1 larvae. Conditions: foliar, 72 h, application rate of 200 ppm, 3 days after infestation, in comparison to untreated samples, read-out: control (at least one of mortality, anti-feedant effect, and growth inhibition). The procedure: Spodoptera littoralis (Egyptian Cotton Leaf Worm)
Cotton leaf discs were placed on agar in 24-well microtiter plates and sprayed with aqueous test solutions prepared from 10,000 ppm DMSO stock solutions. After drying, the leaf discs were infested with five L1 larvae. The samples were assessed for mortality, anti-feedant effect, and growth inhibition in comparison to untreated samples 3 days after infestation. Control of Spodoptera littoralis by a test sample is when at least one of mortality, anti-feedant effect, and growth inhibition is higher than the untreated sample.

One may read the mortality as the share of the test organisms that died.

On to `CC/C(=N\Nc1ccc(/C=N/NC(=O)Nc2c(C)cccc2C)cc1)c1ccc(C(F)(F)F)cc1` [Compound 27, 1-(2,6-dimethylphenyl)-3-[(E)-[4-[(2E)-2-[1-[4-(trifluoromethyl)phenyl]propylidene] hydrazino]phenyl]methyleneamino] urea], for which the percent effect (mortality or growth inhibition) at 200 ppm in assay [1] and in assay [2] was at least 80% each time. Moreover, the mortality at 200 ppm in assay [3] was at least 80%.

Turning to `C/C(=N\Oc1ccc(/C=N/NC(=S)Nc2c(C)cccc2C)cc1)c1ccc(OC(F)(F)F)cc1` [Compound 10, 1-(2,6-dimethylphenyl)-3-[[4-[1-[4-(trifluoromethoxy)phenyl]ethylidene-amino]oxyphenyl]methylene-amino]thiourea], the percent effect (mortality or growth inhibition) at 200 ppm in assay [1] and in assay [2] was at least 80% each time. The mortality at 200 ppm in assay [3] is at least 80%.

On to `Cc1cccc(C)c1NC(=S)N/N=C/c1ccc(O/N=C2\CCc3cc(OC(F)(F)F)ccc32)cc1` [Compound 9, 1-(2,6-dimethylphenyl)-3-[[4-[[5-(trifluoromethoxy)indan-1-ylidene]amino]oxyphenyl]methylene-amino]thiourea], for which the percent effect (mortality or growth inhibition) at 200 ppm in assay [1] and in assay [2] was at least 80% each time. In addition, the mortality at 200 ppm in assay [3] was at least 80%.

With `C/C(=N\Nc1ccc(/C=N/NC(=S)Nc2c(C)cccc2C)cc1)c1ccccc1OC(F)(F)F` [Compound 18, 1-(2,6-dimethylphenyl)-3-[[4-[2-[1-[2-(trifluoromethoxy)phenyl]ethylidene] hydrazino]phenyl]methylene-amino]thiourea], in assay [1], the percent effect (mortality or growth inhibition) at 200 ppm was at least 80%.

With `CC/C(=N\Nc1ccc(/C=N/NC(=S)Nc2ccccc2C(C)C)cc1)c1ccc(C(F)(F)F)cc1` [Compound 26, 1-(2-isopropylphenyl)-3-[(E)-[4-[(2E)-2-[1-[4-(trifluoromethyl)phenyl]propylidene] hydrazino]phenyl]methyleneamino] thiourea], the percent effect (mortality or growth inhibition) at 200 ppm in assay [1] and in assay [2] was at least 80% throughout. In addition, in assay [3], the mortality at 200 ppm was at least 80%.

With `C/C(=N\Nc1ccc(/C=N/NC(=S)Nc2c(C)cccc2C)cc1)c1ccc(C(F)(F)F)cc1` [Compound 22, 1-(2,6-dimethylphenyl)-3-[(E)-[4-[(2E)-2-[1-[4-(trifluoromethyl)phenyl]ethylidene] hydrazino]phenyl]methyleneamino] thiourea], the percent effect (mortality or growth inhibition) at 200 ppm in assay [1] and in assay [2] was at least 80% throughout. For the same molecule, the mortality at 200 ppm in assay [3] was at least 80%.

With `C/C(=N\Nc1ccc(/C=N/NC(=O)Nc2ccccc2C(C)C)cc1)c1ccc(C(F)(F)F)cc1` [Compound 19, 1-(2-isopropylphenyl)-3-[(E)-[4-[(2E)-2-[1-[4-(trifluoromethyl)phenyl]ethylidene] hydrazino]phenyl]methyleneamino] urea], the percent effect (mortality or growth inhibition) at 200 ppm in assay [1] and in assay [2] was at least 80% throughout.

`CC(C)c1ccccc1NC(=O)N/N=C/c1ccc(O/N=C2\CCc3cc(OC(F)(F)F)ccc32)cc1` [Compound 4, 1-(2-isopropylphenyl)-3-[[4-[[5-(trifluoromethoxy)indan-1-ylidene]amino]oxyphenyl]methylene-amino]urea]: the percent effect (mortality or growth inhibition) at 200 ppm in assay [1] and in assay [2] was at least 80% throughout. The mortality at 200 ppm in assay [3] is at least 80%.

Regarding `Cc1cccc(C)c1NC(=S)N/N=C/c1ccc(N/N=C2\CCc3cc(OC(F)(F)F)ccc32)cc1` [Compound 11, 1-(2,6-dimethylphenyl)-3-[[4-[2-[5-(trifluoromethoxy)indan-1-ylidene]hydrazino]phenyl]methylene-amino]thiourea], the percent effect (mortality or growth inhibition) at 200 ppm in assay [1] and in assay [2] was at least 80% throughout. In addition, in assay [3], the mortality at 200 ppm is at least 80%.

On to `Cc1cccc(C)c1NC(=O)N/N=C/c1ccc(O/N=C2\CCc3cc(OC(F)(F)F)ccc32)cc1` [Compound 1, 1-(2,6-dimethylphenyl)-3-[[4-[[5-(trifluoromethoxy)indan-1-ylidene]amino]oxyphenyl]methylene-amino]urea], for which the percent effect (mortality or growth inhibition) at 200 ppm in assay [1] and in assay [2] was at least 80% each time. In assay [3], the mortality at 200 ppm is at least 80%.

Regarding `C/C(=N\Nc1ccc(/C=N/NC(=O)Nc2ccccc2C(C)C)cc1)c1cccc(OC(F)(F)F)c1` [Compound 13, 1-(2-isopropylphenyl)-3-[[4-[2-[1-[3-(trifluoromethoxy)phenyl]ethylidene] hydrazino]phenyl]methyleneamino] urea], the percent effect (mortality or growth inhibition) at 200 ppm in assay [2] is at least 80%.

Consider `C/C(=N\Oc1ccc(/C=N/NC(=O)Nc2ccccc2C(C)C)cc1)c1ccc(OC(F)(F)F)cc1` [Compound 6, 1-(2-isopropylphenyl)-3-[[4-[1-[4-(trifluoromethoxy)phenyl]ethylidene-amino]oxyphenyl]methylene-amino]urea], for which the percent effect (mortality or growth inhibition) at 200 ppm in assay [1] and in assay [2] was at least 80% in each case.

Take `C/C(=N\Nc1ccc(/C=N/OC(=O)Nc2c(C)cccc2C)cc1)c1ccc(C(F)(F)F)cc1` [Compound 12, [[4-[2-[1-[4-(trifluoromethyl)phenyl]ethylidene] hydrazino]phenyl]methyleneamino] N-(2,6-dimethylphenyl)carbamate]: in assay [2], the percent control (mortality or growth inhibition) at 200 ppm is at least 80%.

`C/C(=N\Oc1ccc(/C=N/NC(=S)Nc2ccccc2C(F)(F)F)cc1)c1ccc(OC(F)(F)F)cc1` [Compound 31, 1-[[4-[1-[4-(trifluoromethoxy)phenyl]ethylidene-amino]oxyphenyl]methylene-amino]-3-[2-(trifluoromethyl)phenyl]thiourea]: the percent effect (mortality or growth inhibition) at 200 ppm in assay [2] is at least 80%.

Turning to `C/C(=N\Oc1ccc(/C=N/NC(=S)Nc2ccccc2C(C)C)cc1)c1ccc(OC(F)(F)F)cc1` [Compound 8, 1-(2-isopropylphenyl)-3-[[4-[1-[4-(trifluoromethoxy)phenyl]ethylidene-amino]oxyphenyl]methylene-amino]thiourea], the percent effect (mortality or growth inhibition) at 200 ppm in assay [1] and in assay [2] was at least 80% in each case.

Turning to `C/C(=N\Nc1ccc(/C=N/NC(=S)Nc2ccccc2C(C)C)cc1)c1ccccc1OC(F)(F)F` [Compound 23, 1-(2-isopropylphenyl)-3-[(E)-[4-[(2E)-2-[1-[2-(trifluoromethoxy)phenyl]ethylidene] hydrazino]phenyl]methylene-amino]thiourea], in assay [1], the percent effect (mortality or growth inhibition) at 200 ppm was at least 80%.

As for `C/C(=N\Nc1ccc(/C=N/NC(=S)Nc2c(C)cccc2C)cc1)c1cccc(OC(F)(F)F)c1` [Compound 16, 1-(2,6-dimethylphenyl)-3-[[4-[2-[1-[3-(trifluoromethoxy)phenyl]ethylidene] hydrazino]phenyl]methylene-amino]thiourea], the percent effect (mortality or growth inhibition) at 200 ppm in assay [1] and in assay [2] was at least 80% in each case.

For the molecule `C/C(=N\Nc1ccc(/C=N/NC(=O)Nc2c(C)cccc2C)cc1)c1cccc(OC(F)(F)F)c1` [Compound 15, 1-(2,6-dimethylphenyl)-3-[[4-[2-[1-[3-(trifluoromethoxy)phenyl]ethylidene]hydrazino]phenyl]methylene-amino]urea], the percent effect (mortality or growth inhibition) at 200 ppm in assay [1] is at least 80%.

For `C/C(=N\Nc1ccc(/C=N/NC(=S)Nc2ccccc2C(C)C)cc1)c1cccc(OC(F)(F)F)c1` [Compound 14, 1-(2-isopropylphenyl)-3-[[4-[2-[1-[3-(trifluoromethoxy)phenyl]ethylidene] hydrazino]phenyl]methyleneamino] thiourea], the percent effect (mortality or growth inhibition) at 200 ppm in assay [1] and in assay [2] was at least 80% in each case.

As to `C/C(=N\Nc1ccc(/C=N/NC(=O)Nc2c(C)cccc2C)cc1)c1ccc(OC(F)F)cc1` [Compound 29, 1-[[4-[2-[1-[4-(difluoromethoxy)phenyl]ethylidene] hydrazino]phenyl]methyleneamino]-3-(2,6-dimethylphenyl)urea], the percent effect (mortality or growth inhibition) at 200 ppm in assay [1] was at least 80%. The mortality at 200 ppm in assay [3] is at least 80%.

Turning to `FC(F)(F)Oc1ccc2c(c1)CC/C2=N\Oc1ccc(/C=N/NC(=S)Nc2ccccc2C(F)(F)F)cc1` [Compound 30, 1-[[4-[[5-(trifluoromethoxy)indan-1-ylidene]amino]oxyphenyl]methylene-amino]-3-[2-(trifluoromethyl)phenyl]thiourea], in assay [2], the percent effect (mortality or growth inhibition) at 200 ppm was at least 80%.

In the case of `CC/C(=N\Nc1ccc(/C=N/NC(=O)Nc2ccccc2C(C)C)cc1)c1ccc(C(F)(F)F)cc1` [Compound 25, 1-(2-isopropylphenyl)-3-[(E)-[4-[(2E)-2-[1-[4-(trifluoromethyl)phenyl]propylidene] hydrazino]phenyl]methyleneamino] urea], the percent effect (mortality or growth inhibition) at 200 ppm in assay [1] and in assay [2] was at least 80% throughout.
